{"source": "patent US20230203130A1", "about": "“A PEPTIDE COCKTAIL” (Hubro Therapeutics AS, priority 2020, published 2023)", "key": {"[1]": {"system": "T-cells from PMBCs of healthy donors", "test": "T-cell proliferation after stimulation of PMBCs with mixture fsp17, fsp15 and fsp16 (Example 9)", "format": "cell-based, human", "experimental": "Using a similar procedure to that used in Examples 4 and 7 above, PMBCs from four healthy donors were stimulated in vitro with a peptide mixture containing equimolar amounts (10 uM) of fsp17 (SEQ ID NO: 126), fsp15 (SEQ ID NO: 127) and fsp16 (SEQ ID NO: 128), which are shown in Table 15, below. These peptides have the non-chiral amino acid glycine at their C-terminal, which can serve as a linker for conjugation of the peptides to other molecules. It is expected that this C-terminal glycine will not create any new T-cell epitopes which will change the specificity of the induced T-cells.\nAfter one round (14 days) of in vitro stimulation, T-cells were harvested and tested for recognition of the peptide mixture or individual peptides, using a concentration of 10 μM of each peptide. T-cell proliferation was measured as counts per minute (CPM) after uptake of ^3H-thymidine in a standard T cell proliferation assay.\nThe PMBCs from the four healthy donors underwent a second round of in vitro stimulation, and T-cells were again harvested and tested for proliferation against the peptide mixture and the individual peptides."}, "[2]": {"system": "T-cells from PMBCs of healthy donors", "test": "T-cell proliferation after stimulation of PMBCs with mixture fsp10, fsp11 and fsp13 (Example 8)", "format": "cell-based, human", "settings": "donor 1, one round of in vitro stimulation (14 days), 10 μM; FIG. 19", "experimental": "Using a similar procedure to that used in Examples 4 and 7 above, PMBCs from four healthy donors were stimulated in vitro with a peptide mixture containing equimolar amounts (10 uM) of fsp10 (SEQ ID NO: 28), fsp11 (SEQ ID NO: 29) and fsp13 (SEQ ID NO: 31).\nAfter one round of stimulation (14 days), T-cells were harvested and tested for recognition of the peptide mixture, using single peptide concentrations of 10 μM. T-cell proliferation was measured as counts per minute (CPM) after uptake of ^3H-thymidine in a standard T cell proliferation assay.\nThe PMBCs from the four healthy donors underwent a second round of in vitro stimulation, and T-cells were again harvested and tested for proliferation against the peptide mixture and the individual peptides. […] While it has, in the past, been considered that a SI value of greater than 2 is the criterion for indicating a T-cell response in a T-cell proliferation assay, this is only the case in subjects who have been vaccinated prior to the T-cell proliferation assay. Where a healthy subject has not been vaccinated before the T-cell proliferation assay (as in the present T-cell proliferation assay), it is not expected that a SI value of 2 or greater will be achieved. Therefore, in non-vaccinated, healthy subjects, an increase in the SI value above 1 is indicative of a T-cell response."}, "[3]": {"system": "colorectal cancer cell line HCT116", "settings": "Linnebacher et al.; HCT116 carries the corresponding frameshift mutation; cited from earlier work"}, "T cells": {"system": "T cells", "settings": "cited from earlier work"}, "[4]": {"system": "T cells (PBMC) from healthy donors", "test": "T-cell proliferation (3H-thymidine, SI) after in vitro stimulation of PBMC with cocktail fsp2+fsp4 (Example 4)", "format": "cell-based, human", "parameters": "T cell proliferation (stimulation index, SI): immunogenicity: dose or concentration left out as unconfirmed", "experimental": "Fresh buffy coats from four healthy donors were obtained from a blood bank.\nPeripheral blood mononuclear cells (PBMC) isolated from fresh buffy coats from four healthy donors were counted and suspended in DC medium to 15*10^6 cells/ml, and subsequently diluted with DC-medium to 4*10^6 cells/ml (Table 6).\nFour 24-well plates were used for each donor, with 4*10^6 cells per well (each well has a volume of 1 ml).\nPeptide cocktail: Solution of peptides fsp2+fsp4, containing […] of each peptide. 40 μl peptide solution was added to each well.\nThe plates were incubated in a cell incubator for 14 days (37° C., 5% CO2). IL-2 and IL-7 were added on day 3. The cells were inspected daily.\nTest peptides: fsp2+fsp4 (SEQ ID NOs: 21 and 23), fsp1 (SEQ ID NO: 20), fsp2 (SEQ ID NO: 21), fsp3 (SEQ ID NO: 22), fsp4 (SEQ ID NO: 23), fsp5 (SEQ ID NO: 19).\nNegative controls: T cells, T cells+APC (without addition of test peptides)\nCells and reagents were added to plate wells (in triplicate) as described in Tables 8 and 9 below. The total volume added to each well was 0.20 ml. • T cells (PBMC): 50 000 cells/well (0.25*10^6 cells/ml) • APC: Irradiated (30 Gy, 8 minutes) autologous feeder cells: 50 000 cells/well • (fspx): 0.2 nmol peptide/well (each peptide), concentration: […] peptide. (fsp was dissolved in DMSO before dilution to correct concentration)\nThe plates were incubated in a cell incubator for 48 hours (37° C., 5% CO2).\nAfter incubation for 48 hours, 20 μl 3H-tThymidine solution (5 Ci/ml) was added to each well and the plates were incubated for approximately 17 hours (37° C., 5% CO2).\nAfter 17 hours the cells were harvested (Unifilters) and dried on the filters at 45° C. until completely dry. After covering the bottom of the Unifilters with adhesive covers (delivered with the Unifilters) 25 μl micro scintillation liquid was added to each well, the plate was covered with TopSeal and 3H-Thymidine uptake was measured as counts per minute (CPM) using a microplate scintillation counter.\nThe T cell proliferation results after the first round of in vitro stimulation with the cocktail of fsp2 and fsp4 peptides are presented as stimulation index (SI) in FIG. 10. SI=mean CPM (triplicates) of (T cells+APC+test peptide(s)) divided by mean CPM (triplicates) of (T cells+APC). SI>1 indicates an increase in T-cell proliferation and SI 2 is a clear sign of immunogenicity.\nPBMCs harvested after the first in vitro stimulation were re-stimulated in vitro according to the protocol set out above, with 2×10^6 cells per well. T-cell proliferation was tested according to the protocol set out above."}, "[5]": {"format": "physicochemical", "experimental": "The peptide was difficult to dissolve and it was attempted to dissolve the crude fsp5 (SEQ ID NO: 19) (˜150 mg) in approximately 4 ml 50% MeCN in water under gentle heating.\nAnother batch of fsp5 (SEQ ID NO: 19) was prepared, dissolved in neat DMSO under gentle heating and purified by preparative HPLC. Again, only very small amounts of purified fsp5 (SEQ ID NO: 19) were obtained."}, "[6]": {"format": "physicochemical", "experimental": "A batch of fsp5 (SEQ ID NO: 19) was prepared by solid phase peptide synthesis (SPPS) by using FMOC chemistry and Prelude synthesizer (Gyros Protein Technologies Inc., USA). The crude peptide was analysed by UPLC and MS. […] UPLC system: Column; Acquity UPLC BEH C18 […], detection; PDA 210-500 nm, solvent A); 0.1% TFA in water, solvent B; 0.1% TFA in MeCN, gradient: 20-70% B (2-10 minutes, linear).\nWhen the purity of the small amount of purified fsp5 (SEQ ID NO: 19) was reassessed by UPLC after lyophilisation, the purity had dropped from around 90% to below 50% as shown in FIG. 4.", "remark": "listed apart in the source"}, "[7]": {"settings": "second round of in vitro stimulation, FIG. 22"}}, "note": "Like-named read-outs stand apart in the source and are kept apart here. Where no end group is shown, it is not given here."}
{"sequence": "KGIMKEKKSLVRLSSCVPVALMSAMTG (not fully specified) [fsp17, modified peptide of −1a frameshifted TGFβR2]", "values": [{"measurement": "T-cell induction (proliferation)", "setting": "[1]; [7]", "value": "T-cells were induced"}]}
{"sequence": "STCPTYVKGSPSCPLRDLQ (listed as Homo sapiens) [fsp13, peptide of −1a frameshifted SLC22A9]", "values": [{"measurement": "T-cell response (proliferation, CPM)", "setting": "[2]", "value": "did not stimulate T-cells"}]}
{"sequence": "RLSSCVPVA (listed as Homo sapiens) [p573, prior art peptide of mutTGFβR2]", "values": [{"measurement": "lysis of colorectal cancer cell line HCT116", "setting": "[3]", "value": "able to lyse the colorectal cancer cell line HCT116"}, {"measurement": "immunogenicity", "setting": "T cells; EP1078000 FIG. 14, four rounds of stimulation of the T-cells", "value": "not immunogenic"}, {"measurement": "immunogenicity", "setting": "T cells; Linnebacher et al., FIG. 1", "value": "immunogenic"}, {"measurement": "activating specific CTLs", "setting": "T cells; Linnebacher et al., HLA-A2.1 restricted, in vitro", "value": "capable of activating specific CTLs"}, {"measurement": "immunogenicity", "setting": "T cells; Saeterdal et al., 2001, Cancer Immunol Immunother", "value": "immunogenic"}, {"measurement": "generation of CTL line and CTL clones", "setting": "T cells; Saeterdal et al., Cancer Immunol Immunother 2001", "value": "able to generate a CTL line and several CTL clones"}]}
{"sequence": "KKTLRNHLFLIRWIILTFLQKILK (listed as Homo sapiens) [fsp10, peptide of −1a frameshifted KIAA2018]", "values": [{"measurement": "T-cell response (proliferation, CPM)", "setting": "[2]", "value": "did not stimulate T-cells"}]}
{"sequence": "KKKGRRNRIPAVLRTEGEPLHTPSVGMRETG (listed as Homo sapiens) [fsp15, peptide of −1a frameshifted ASTE1]", "values": [{"measurement": "T-cell induction (proliferation)", "setting": "[1]; one round (14 days) of in vitro stimulation, 10 μM, FIG. 21", "value": "T-cells are induced"}, {"measurement": "T-cell induction (proliferation)", "setting": "[1]; [7]", "value": "T-cells were induced"}]}
{"sequence": "KCIMKEKKSLVRLSSCVPVALMSAMTTSSSQKN (listed as Homo sapiens) [fsp5, optimised consensus peptide of TGFβR2]", "values": [{"measurement": "relative immunogenicity", "setting": "[4]; FIGS. 10 and 11, compared with fsp3 and fsp4", "value": "more immunogenic than peptides which do not comprise amino acids from the wild-type sequence of TGFβR2"}, {"measurement": "T cell proliferation (stimulation index, SI): immunogenicity", "setting": "[4]; first and second round of in vitro stimulation with cocktail of fsp2 and fsp4, four healthy donors, FIGS. 10-12", "value": "stimulated T-cells induced from PMBCs"}, {"measurement": "effect of adding water to DMSO solution", "setting": "[5]", "value": "precipitation of the peptide"}, {"measurement": "solubility", "setting": "[5]", "value": "no clear solution could be obtained"}, {"measurement": "purity by UPLC after lyophilisation (stability)", "setting": "[6]", "value": "below 50%"}]}
